Reference: patent US20250161279A1, “METHODS OF TREATING MULTIPLE MYELOMA USING BCL-2 INHIBITOR” (BeiGene Switzerland GmbH, priority 2022, published 2025)
Values joined by “and” are separate entries in the source; they are usually repeats but may differ in a detail not shown here. Equal entries are not always repeated.

How the values were obtained:
[1] = system: KMS-12-PE human MM subcutaneous xenograft model; experiment: KMS-12-PE xenograft model study: tumor growth; type: in vivo, NCG mice; conditions: for Tumor Volume (mm^3) (Mean ± SEM) Day 17: 17 days
Protocol: KMS-12-PE, a human MM cell line, was obtained from Deutsche Sammlung von Mikroorganismen und Zellkulturen (DSMZ, Catalog: ACC 606). KMS-12-PE cells were cultured in RPMI 1640 complete medium, supplemented with 20% (v/v) fetal bovine serum, and 100 μg/mL of penicillin and streptomycin. In this study, cells were used within 10 passages of recovery from liquid nitrogen. KMS-12-PE cells were maintained as suspension cultures at 37° C. in a 5% CO2 atmosphere, being passaged twice weekly. […] Resuspended cells were placed on ice prior to inoculation. The right front flank of each mouse was cleaned with 75% ethanol prior to cell inoculation. Each animal was injected subcutaneously with 3×10^7 cells in 200 μL of cells suspension in the right front flank via a 1 mL LS 25GA syringe. […] Body weight was assessed immediately before dosing and volume dosed was adjusted accordingly. Tumor volume was measured twice weekly in two dimensions using a caliper (measurable since day 4 post treatment in this study). Body weights were recorded twice weekly. One individual was responsible for tumor measurement for the duration of the study. Mice were also monitored daily for clinical signs of toxicity. Mice were euthanized using carbon dioxide at the end of the study. The two-dimension diameters of tumor were determined using a caliper. Tumor volume was calculated using the formula: […] Tumor growth inhibition (TGI) was calculated using the following formula: […] Where, treated t=treated tumor volume at time t, treated t0=treated tumor volume at time 0, vehicle t=vehicle tumor volume at time t, vehicle t0=vehicle tumor volume at time 0. The tumor volume on day 17 post treatment was analyzed using ANOVA method on logarithmic scale in SAS Enterprise Guide version: 7.15 HF3. The following comparisons were made among treatment groups, […] The combination therapy was compared to corresponding single agents. […] The EOHSA tests were adjusted by Holm's multiple comparison test. #p<0.05, ####p<0.0001.

[2] = PK analysis of Compound 1 in KMS-12-PE xenograft mice (plasma, day 14); type: in vivo, NCG mice; conditions: for AUC0-24 h of Compound 1, Day 14 / Cmax of Compound 1, Day 14: plasma; for Individual animal's plasma concentration of Compound 1, 0 h post treatment / Individual animal's plasma concentration of Compound 1, 0.5 h post treatment / Individual animal's plasma concentration of Compound 1, 2 h post treatment / Individual animal's plasma concentration of Compound 1, 8 h post treatment / Individual animal's plasma concentration of Compound 1, 24 h post treatment: day 14, steady state
Protocol: On day 14 post treatment, blood samples (about 100 μL per mouse) were collected from the retro-orbital sinus under isoflurane/oxygen anesthesia at predose 0, 0.5, 2, 8, and 24 hours after dosing of Compound 1 (3 mice per time point, every mouse was used for 2 or 3 time points). The blood was transferred to the EDTA-K2 anticoagulation tube, and the plasma was collected by centrifugation at 5,600 rpm for 7 min and was kept frozen in −80° C. until analysis.
For PK analysis, maximum plasma concentration (Cmax) and time to peak (Tmax) were got directly from the plasma concentration versus time graphs. The area under the plasma concentration-time curve (AUC) from time 0 to 24 hours post-dose (AUC0-24h) was calculated.

[3] = system: patients with R/R MM harboring t (11;14); type: in vivo, human; conditions: 19 patients, 80, 160, 320 and 640 mg QD with dexamethasone, preliminary
[4] = Clinical study, PK of Compound 1 in combination with dexamethasone; type: in vivo, human; conditions: MM patients, 80 to 640 mg target doses
Protocol: A dose escalation study is conducted to evaluate the safety and tolerability of Compound 1 in combination with dexamethasone and dexamethasone plus carfilzomib in patients with relapsed/refractory (R/R) multiple myeloma (MM) and t (11;14). Also, the corresponding maximum tolerated dose (MTD)/maximum assessed dose (MAD), recommended Phase 2 dose (RP2D) and pharmacokinetics for Compound 1 in the combination therapies are to be observed.
Compound 1 plus dexamethasone: Patients with R/R MM and t (11;14) receive increasing doses of Compound 1 once daily with starting dose at 80 mg once daily, plus 40 mg of dexamethasone once weekly to determine the safety, tolerability, efficacy, and pharmacokinetics (PK). Upon completion of the dose-limiting toxicity (DLT) window (21 days) and depending on the number of evaluable patients and observed DLTs, the dose of Compound 1 may be de-escalated to 40 mg once daily, stay at 80 mg once daily, or be escalated to 160 mg once daily. Upon dose escalation to 160 mg once daily and provided there are no DLTs observed during the DLT window, the study may be conducted to escalate to a few higher dose levels (up to 640 mg once daily), or to insert some certain intermediate doses between 80 mg and 160 mg once daily.

[5] = Dexamethasone 0.1 mg/kg p.o. QD
[6] = Compound 1 1.5 mg/kg + Dexamethasone 0.1 mg/kg p.o. QD
[7] = Compound 1 1.5 mg/kg + Dexamethasone 0.1 mg/kg
[8] = Compound 1 1.5 mg/kg + Dexamethasone 1 mg/kg p.o. QD
[9] = Compound 1 1.5 mg/kg + Dexamethasone 1 mg/kg
[10] = Compound 1 1.5 mg/kg p.o. QD, single agent
[11] = Compound 1 1.5 mg/kg p.o. QD, 1.5 mg/kg

## C[C@@H]1C[C@H]2[C@@H]3CCC4=CC(=O)C=C[C@]4(C)[C@@]3(F)[C@@H](O)C[C@]2(C)[C@@]1(O)C(=O)CO [Dexamethasone]
[1]; [5]
  TGI (%) Day 17: 9%
  Tumor Volume (mm^3) (Mean ± SEM) Day 17: 1036.5 ± 88.8 mm^3
[1]; Dexamethasone 1 mg/kg p.o. QD
  TGI (%) Day 17: 46%
  Tumor Volume (mm^3) (Mean ± SEM) Day 17: 696.0 ± 69.2 mm^3

## CC(C)c1ccccc1[C@@H]1CCCN1C1CC2(CCN(c3ccc(C(=O)NS(=O)(=O)c4ccc(NCC5CCC(C)(O)CC5)c([N+](=O)[O-])c4)c(Oc4cnc5[nH]ccc5c4)c3)CC2)C1 (stereo partly drawn) [Compound 1, 2-((1H-pyrrolo[2,3-b]pyridin-5-yl)oxy)-N-((4-((((1r,4r)-4-hydroxy-4-methylcyclohexyl)methyl)amino)-3-nitrophenyl)sulfonyl)-4-(2-((S)-2-(2-isopropylphenyl)pyrrolidin-1-yl)-7-azaspiro[3.5]nonan-7-yl)benzamide]
[1]; Compound 1 1.5 mg/kg p.o. QD
  TGI (%) Day 17: 11%
  Tumor Volume (mm^3) (Mean ± SEM) Day 17: 1011.7 ± 103.8 mm^3
[2]; [6]
  AUC0-24 h of Compound 1, Day 14: 107 ng·h/mL
  Cmax of Compound 1, Day 14: 29.5 ng/mL
[2]; [7]
  Individual animal's plasma concentration of Compound 1, 0 h post treatment: BLOQ
  Individual animal's plasma concentration of Compound 1, 0.5 h post treatment: 4.02 ng/mL and 5.2 ng/mL and 3.67 ng/mL
  Individual animal's plasma concentration of Compound 1, 2 h post treatment: 36.7 ng/mL and 30.9 ng/mL and 20.8 ng/mL
  Individual animal's plasma concentration of Compound 1, 8 h post treatment: 3.18 ng/mL and 6.95 ng/mL and 3.59 ng/mL
  Individual animal's plasma concentration of Compound 1, 24 h post treatment: BLOQ
[2]; [8]
  AUC0-24 h of Compound 1, Day 14: 179 ng·h/mL
  Cmax of Compound 1, Day 14: 42.4 ng/mL
[2]; [9]
  Individual animal's plasma concentration of Compound 1, 0 h post treatment: BLOQ
  Individual animal's plasma concentration of Compound 1, 0.5 h post treatment: 14.4 ng/mL and 6.94 ng/mL and 9.04 ng/mL
  Individual animal's plasma concentration of Compound 1, 2 h post treatment: 54.9 ng/mL and 35.8 ng/mL and 36.4 ng/mL
  Individual animal's plasma concentration of Compound 1, 8 h post treatment: 5.15 ng/mL and 7.02 ng/mL and 5.05 ng/mL
  Individual animal's plasma concentration of Compound 1, 24 h post treatment: BLOQ (2×) and 0.692 ng/mL
[2]; [10]
  AUC0-24 h of Compound 1, Day 14: 200 ng·h/mL
  Cmax of Compound 1, Day 14: 55.8 ng/mL
[2]; Compound 1 1.5 mg/kg p.o. QD, with or without dexamethasone
  exposure (AUC0-24h and Cmax) at steady state, single treatment group versus combo treatment: consistent with that in combo treatment
[2]; Compound 1 1.5 mg/kg p.o. QD
  Individual animal's plasma concentration of Compound 1, 24 h post treatment: BLOQ
[2]; [11]
  Individual animal's plasma concentration of Compound 1, 0 h post treatment: 1.09 ng/mL and BLOQ (2×)
  Individual animal's plasma concentration of Compound 1, 0.5 h post treatment: 8 ng/mL and 5.72 ng/mL and 9.29 ng/mL
  Individual animal's plasma concentration of Compound 1, 2 h post treatment: 62.8 ng/mL and 40.7 ng/mL and 63.9 ng/mL
  Individual animal's plasma concentration of Compound 1, 8 h post treatment: 9.97 ng/mL and 9.73 ng/mL and 5.81 ng/mL
[3]
  clinical activity / disease control: demonstrated activity at tested dose levels, and most patients achieved disease control
[4]
  drug-drug-interaction (DDI) potential between dexamethasone and Compound 1: low
